Assay results reported in publication PMC4104029, “Mechanism of Action of Compound-13: An α1-Selective Small Molecule Activator of AMPK” (Chemistry & Biology, 2014).

Assays:
adenylate kinase = assay: Adenylate kinase assay; type: biochemical; details: concentrations up to 100 μM; data not shown
Protocol: Additional enzyme assays. Glycogen phosphorylase (EC 2.4.1.1) was assayed in the physiological direction in reactions containing 20 mM BES pH 6.8, 20 mM phosphate, 1 mM NADP+, 0.5 mM MgCl2, 0.1 % glycogen, 4 µM glucose-1,6-bisphosphate, 0.5 mM DTT, 0.025 % BSA, 0.6 U/ml phosphoglucomutase and 3 U/ml glucose-6-phosphate dehydrogenase (G6PDH). FBP1 (EC 3.1.3.11) was assayed in reactions containing 50 mM TES pH 7.4, 0.1 […]
mM 2-mercaptoethanol, 25 µM fructose-1,6-bisphosphate, 0.8 U/ml phosphoglucoisomerase and 0.5 U/ml G6PDH. PFK1 (EC 2.7.1.11) was assayed in reactions containing 50 mM TES pH 7.4, 2 mM MgCl2, 0.05 % BSA, 2 mM 2-mercaptoethanol, 0.5 mM fructose-6-phosphate, 1 mM ATP, 0.2 mM NADH, 0.5 U/ml aldolase, 15 U/ml triosephosphate isomerase and 2 U/ml α-glycerophosphate dehydrogenase. […] All assays were performed in a final volume of 250 µl and were monitored by changes in fluorescence (FBP1 - λex 340nm, λem 450nm) or A340. […] Liberated phosphate was determined using malachite green reagent. […] The formation of pyrophosphate (PPi) was monitored by reduction of PPi-molybdate complexes using 2-mercaptoethanol and Fiske-Subbarow reducer (Kuang, et al., 2007). […]
Tricistronic expression vectors were constructed using a strategy inspired by Neumann et al (Neumann, et al., 2003). […] The open reading frame of AMPKα1 and AMPKα2 was inserted after the 6×His tag as a Bamh1-Not1 fragment. […]

mouse hepatocytes = assay: Adenine nucleotide ratios by capillary electrophoresis; type: cell-based; details: 1 hr; C13 up to 100 μM
Protocol: Figure 4 The C2 Prodrug, C13, Potently Activates AMPK in Mouse Primary Hepatocytes (A) Isolated mouse hepatocytes were incubated with vehicle or the indicated concentrations of C13 for 1 hr. AICAR (0.5 mM) was included as a positive control. Cell lysates were analyzed using western blotting with the indicated antibodies. (B) AMPKα1 or AMPKα2 complexes were immunoprecipitated from hepatocyte extracts prepared as described in (A) and assayed for kinase activity using 0.2 mM AMARA and 0.1 mM ATP. Results are expressed as the mean Pi incorporated in picomoles per minute-milligram ± SD. (C) Hepatocytes were stimulated with 30 μM C13 for the indicated times prior to harvesting, with AICAR (0.5 mM, 1 hr) as positive control. Lysates were analyzed using western blotting with the indicated antibodies. (D) Mouse hepatocytes were treated with the indicated compounds for 1 hr, and adenine nucleotide ratios were determined using capillary electrophoresis of perchloric acid extracts. (E) Mouse hepatocytes were preincubated with 30 μM STO-609 for 30 min prior to stimulation with 30 μM C13 for 1 hr or with 1 μM ionomycin for 30 min. Lysates were analyzed using western blotting with the indicated antibodies. (F) Wild-type (LKB1^+/+) or LKB1-null (LKB1^−/−) mouse embryonic fibroblasts were incubated with the indicated concentrations of C13 for 1 hr. AICAR (2 mM) was included as a positive control. Lysates were analyzed using western blotting with the indicated antibodies. Results are representative of three independent experiments. […]
Isolation of primary hepatocytes. Hepatocytes were isolated from fasted mice by collagenase digestion (Berry and Friend, 1969). Cells were seeded in M199 containing 100 U/ml penicillin G, 100 µg/ml streptomycin, 0.1 % (w/v) BSA, 10 % (v/v) FBS, 10 nM insulin, 200 nM triiodothyronine and 100 nM dexamethasone. […]
Nucleotide measurements. […] Nucleotides were separated and quantified by capillary electrophoresis using a Beckman P/ACE instrument as previously described (Hawley, et al., 2010).

SMILES | effect on enzyme activity (adenylate kinase) | ADP:ATP and AMP:ATP ratios (mouse hepatocytes)
O=P(O)(O)c1ccc(-c2cc(O)on2)o1 [Compound C2, 5-(5-hydroxyl-isoxazol-3-yl)-furan-2-phosphonic acid] | None of these enzymes were affected | –
CC(C)C(=O)OCOP(=O)(OCOC(=O)C(C)C)c1ccc(C2=NOC(=O)C2)o1 [Compound C13] | – | no detectable changes
